Data from PubChem BioAssay AID248 (DTP/NCI, 2004).
Where “and” joins values, the source holds several entries; their conditions need not be identical. Equal entries are not always repeated. Inconclusive results and toxic doses are left out. No stated cut-off is given here; in the data, active means T/C of 150% or more; inactive means T/C below 125%.

System: L1210 leukemia ip in BDF1 mice, survival T/C
Experiment: NCI In Vivo Anticancer Drug Screen. Data for tumor model L1210 Leukemia (intraperitoneal) in B6D2F1 (BDF1) mice
Conditions: endpoint: mean survival time, higher = longer survival
In short: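 Transplantable tumor model; survival measured in treated vs vehicle control mice. Value = treated/control.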

[1] = dose: 100.0 mg/kg/injection, schedule: Q01DX009 (ip), vehicle: saline
[2] = dose: 200.0 mg/kg/injection, schedule: Q01DX009 (ip), vehicle: saline
[3] = dose: 100.0 mg/kg/injection, schedule: Q04DX003 (ip), vehicle: saline
[4] = dose: 200.0 mg/kg/injection, schedule: Q04DX003 (ip), vehicle: saline
[5] = dose: 400.0 mg/kg/injection, schedule: Q04DX003 (ip), vehicle: saline
[6] = dose: 75.0 mg/kg/injection, schedule: Q01DX001 (ip), vehicle: carboxymethylcellulose (CMC)
[7] = dose: 50.0 mg/kg/injection, schedule: Q04DX002 (ip), vehicle: Klucel (hydroxypropylcellulose) (HPC)
[8] = dose: 100.0 mg/kg/injection, schedule: Q04DX002 (ip), vehicle: Klucel (hydroxypropylcellulose) (HPC)
[9] = dose: 100.0 mg/kg/injection, schedule: Q01DX009 (ip), vehicle: water
[10] = dose: 100.0 mg/kg/injection, schedule: Q04DX003 (ip), vehicle: water
[11] = dose: 200.0 mg/kg/injection, schedule: Q01DX009 (ip), vehicle: water
[12] = dose: 100.0 mg/kg/injection, schedule: Q01DX009 (ip), vehicle: saline with Tween-80
[13] = dose: 200.0 mg/kg/injection, schedule: Q01DX009 (ip), vehicle: saline with Tween-80
[14] = dose: 200.0 mg/kg/injection, schedule: Q04DX002 (ip), vehicle: Klucel (hydroxypropylcellulose) (HPC)
[15] = dose: 100.0 mg/kg/injection, schedule: Q01DX001 (ip), vehicle: saline
[16] = dose: 200.0 mg/kg/injection, schedule: Q01DX001 (ip), vehicle: saline
[17] = dose: 400.0 mg/kg/injection, schedule: Q01DX001 (ip), vehicle: saline

Measured: T/C

COc1cc2c(cc1OCc1ccccc1)C(C#N)N(C(=O)c1ccccc1)C=C2 (stereo not drawn)
inactive: dose: 25.0 mg/kg/injection, schedule: Q01DX009 (ip), vehicle: saline 98 % of control | dose: 50.0 mg/kg/injection, schedule: Q01DX009 (ip), vehicle: saline 100 % of control | [1] 93 % of control | [2] 86 % of control

CCC(C(C)C)C(Br)C(Br)C(C)C1CCC2C3CC=C4CC(OC(C)=O)CCC4(C)C3CCC12C (stereo not drawn)
inactive: dose: 200.0 mg/kg/injection, schedule: Q01DX009 (ip), vehicle: Klucel (hydroxypropylcellulose) (HPC) 91 % of control | dose: 400.0 mg/kg/injection, schedule: Q01DX009 (ip), vehicle: Klucel (hydroxypropylcellulose) (HPC) 96 % of control

N#CC1(Nc2ccc(S(N)(=O)=O)cc2)CCCC1
inactive: dose: 50.0 mg/kg/injection, schedule: Q01DX001 (ip), vehicle: carboxymethylcellulose (CMC) 95 % of control | dose: 100.0 mg/kg/injection, schedule: Q01DX001 (ip), vehicle: carboxymethylcellulose (CMC) 93 % of control | dose: 200.0 mg/kg/injection, schedule: Q01DX001 (ip), vehicle: carboxymethylcellulose (CMC) 98 % of control

C1CN=C(C2=NCCCN2)NC1
inactive: [1] 107 % of control and 101 % of control | [3] 98 % of control | [2] 98 % of control and 101 % of control | [4] 98 % of control | dose: 400.0 mg/kg/injection, schedule: Q01DX009 (ip), vehicle: saline 92 % of control and 102 % of control | [5] 102 % of control

O=[N+]([O-])C1CC12c1ccccc1-c1ccccc12 (stereo not drawn)
inactive: [6] 106 % of control | dose: 150.0 mg/kg/injection, schedule: Q01DX001 (ip), vehicle: carboxymethylcellulose (CMC) 103 % of control | dose: 300.0 mg/kg/injection, schedule: Q01DX001 (ip), vehicle: carboxymethylcellulose (CMC) 97 % of control

Nc1nc(N)c2c(n1)CCCC2
inactive: dose: 12.5 mg/kg/injection, schedule: Q04DX003 (ip), vehicle: saline with Tween-80 95 % of control | dose: 25.0 mg/kg/injection, schedule: Q04DX003 (ip), vehicle: saline with Tween-80 93 % of control | dose: 50.0 mg/kg/injection, schedule: Q04DX003 (ip), vehicle: saline with Tween-80 91 % of control

CCOc1ccc(-n2c(=O)c(N=Nc3ccccc3OC)c(O)n(-c3ccccc3OC)c2=S)cc1
inactive: dose: 50.0 mg/kg/injection, schedule: Q01DX001 (ip), vehicle: Klucel (hydroxypropylcellulose) (HPC) 91 % of control | dose: 100.0 mg/kg/injection, schedule: Q01DX001 (ip), vehicle: Klucel (hydroxypropylcellulose) (HPC) 100 % of control | dose: 200.0 mg/kg/injection, schedule: Q01DX001 (ip), vehicle: Klucel (hydroxypropylcellulose) (HPC) 87 % of control

CC(=O)OCC(=O)[C@@]1(O)CC[C@H]2[C@@H]3CCC4=CC(=O)[C@H](C)C[C@]4(C)[C@H]3[C@@H](O)C[C@@]21C
inactive: dose: 50.0 mg/kg/injection, schedule: Q01DX001 (sc), vehicle: steriod suspending solution 111 % of control | dose: 100.0 mg/kg/injection, schedule: Q01DX001 (sc), vehicle: steriod suspending solution 102 % of control | dose: 100.0 mg/kg/injection, schedule: Q04DX003 (sc), vehicle: steriod suspending solution 100 % of control | dose: 200.0 mg/kg/injection, schedule: Q01DX001 (sc), vehicle: steriod suspending solution 102 % of control | dose: 200.0 mg/kg/injection, schedule: Q04DX003 (sc), vehicle: steriod suspending solution 105 % of control | dose: 400.0 mg/kg/injection, schedule: Q01DX001 (sc), vehicle: steriod suspending solution 110 % of control | dose: 400.0 mg/kg/injection, schedule: Q04DX003 (sc), vehicle: steriod suspending solution 107 % of control

CCCCCCCCC1NC1CCCCCCCC(=O)OC (stereo not drawn)
inactive: dose: 25.0 mg/kg/injection, schedule: Q04DX002 (ip), vehicle: Klucel (hydroxypropylcellulose) (HPC) 101 % of control | [7] 107 % of control | [8] 98 % of control

CCS(=O)(=O)c1ncc2cnccn12
inactive: dose: 50.0 mg/kg/injection, schedule: Q01DX009 (ip), vehicle: water 98 % of control | [9] 98 % of control and 101 % of control | [10] 93 % of control | [11] 105 % of control and 110 % of control | dose: 200.0 mg/kg/injection, schedule: Q04DX003 (ip), vehicle: water 95 % of control

O=c1[nH][nH]c(-c2ccccc2)c1Cc1ccccc1
inactive: [3] 95 % of control | [4] 96 % of control | [5] 96 % of control

CS(=O)(=O)c1ncc2cnccn12
inactive: [9] 101 % of control | [10] 109 % of control | [11] 109 % of control | dose: 400.0 mg/kg/injection, schedule: Q04DX003 (ip), vehicle: water 110 % of control

CCCCNC(C)(C)C(S)c1ccc(Cl)cc1 (stereo not drawn)
inactive: dose: 12.0 mg/kg/injection, schedule: Q01DX009 (ip), vehicle: Klucel (hydroxypropylcellulose) (HPC) 104 % of control | dose: 25.0 mg/kg/injection, schedule: Q01DX009 (ip), vehicle: Klucel (hydroxypropylcellulose) (HPC) 108 % of control

CCCCCCCCCC(O)CCCCC (stereo not drawn)
inactive: [12] 103 % of control | dose: 100.0 mg/kg/injection, schedule: Q04DX003 (ip), vehicle: Klucel (hydroxypropylcellulose) (HPC) 98 % of control | [13] 107 % of control | dose: 200.0 mg/kg/injection, schedule: Q04DX003 (ip), vehicle: Klucel (hydroxypropylcellulose) (HPC) 97 % of control | dose: 400.0 mg/kg/injection, schedule: Q04DX003 (ip), vehicle: Klucel (hydroxypropylcellulose) (HPC) 101 % of control

O=P(c1cccc(C(F)(F)F)c1)(c1cccc(C(F)(F)F)c1)c1cccc(C(F)(F)F)c1.O=P(c1cccc(C(F)(F)F)c1)(c1cccc(C(F)(F)F)c1)c1cccc(C(F)(F)F)c1.[Cl][Sn]([Cl])([Cl])[Cl]
inactive: [8] 100 % of control | [14] 96 % of control | dose: 400.0 mg/kg/injection, schedule: Q04DX002 (ip), vehicle: Klucel (hydroxypropylcellulose) (HPC) 86 % of control

O=C(O)C1c2ccccc2-c2ccccc21
inactive: [15] 113 % of control | [16] 91 % of control | [17] 101 % of control

O=S1(=O)C=C2CCCCC21 (stereo not drawn)
inactive: [6] 100 % of control

[Cl][Pd][Cl].[NH-]C1CCCCC1.[NH-]C1CCCCC1
inactive: [7] 94 % of control | [8] 102 % of control | [14] 87 % of control

CC1(C)C=CC(C)(C)c2c(NS(=O)(=O)c3ccccc3)ccc(NS(=O)(=O)c3ccccc3)c21
inactive: [12] 97 % of control | [13] 92 % of control | dose: 400.0 mg/kg/injection, schedule: Q01DX009 (ip), vehicle: saline with Tween-80 94 % of control

CNS(=O)(=O)c1ccccc1C=C(c1ccccc1)c1ccccc1
inactive: dose: 100.0 mg/kg/injection, schedule: Q01DX001 (ip), vehicle: steriod suspending solution 92 % of control | dose: 200.0 mg/kg/injection, schedule: Q01DX001 (ip), vehicle: steriod suspending solution 114 % of control | dose: 400.0 mg/kg/injection, schedule: Q01DX001 (ip), vehicle: steriod suspending solution 102 % of control

CNC(=O)c1c2c(nc3ccccc13)CCCC2
inactive: [15] 102 % of control | [16] 102 % of control | [17] 111 % of control

CO/C(C)=C(/C#N)C(N)=S
inactive: dose: 100.0 mg/kg/injection, schedule: Q04DX002 (ip), vehicle: saline with Tween-80 93 % of control | dose: 200.0 mg/kg/injection, schedule: Q04DX002 (ip), vehicle: saline with Tween-80 97 % of control | dose: 400.0 mg/kg/injection, schedule: Q04DX002 (ip), vehicle: saline with Tween-80 101 % of control

O=C1OC(=C(Br)Br)C2C3C=CC(CC3)C12 (stereo not drawn)
inactive: [3] 95 % of control | [4] 98 % of control | [5] 98 % of control
